Laboratory results reported in US7135466B2 (Kirin Beer Kabushiki Kaisha, priority 1999, dated 2006).
Read-outs that look alike come from different tables or passages of the source.

Key:
PDGF-Ra = target: T1, PDGF-Ra (Homo sapiens, UniProt P16234); experiment: Inhibitory activity against PDGF-Ra phosphorylation by PDGF-AA stimulation using G292; type: cell-based; conditions: for IC50: > means inhibition at indicated concentration not more than 50%, < and << not less than 50%, read-out: PDGF (E) IC50; for inhibition at 0.1 µM: G292, figure within parentheses in >100( ), at 100 nM, read-out: PDGF (E) inhibition (%) at 100 nM; for PDGF (E) inhibition (%), figure in parentheses in >30( ): concentration not defined in key (presumably 30 nM)
T1 construct: host or cells: G-292 human osteosarcoma cells
Outline: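 Human osteosarcoma G-292, 0.1% FBS o/n; cpd (DMSO) 1 h 37 °C; PDGF-AA 50 ng/ml 5 min; lyse 20 min RT; PY-20 capture 4 °C o/n; anti-PDGF-Ra + HRP-GAR; OD450.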

c-kit = target: T2, c-kit (Homo sapiens, UniProt P10721); experiment: Inhibitory activity against c-kit autophosphorylation (MO7e cells, h-SCF); type: cell-based; conditions: for inhibition at 1 µM: Mo7e, at 1000 nM; for IC50: MO7e cells, read-out: c-kit IC50
T2 construct: MO7e (human megakaryocytic leukemia cell line) which had been arrested for 20 hr; endogenous in cells; host or cells: MO7e human megakaryocytic leukemia cell line
Outline: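 First, human megakaryocytic leukemia MO7e cells arrested 20 hr receive compound for one hour. Second, SCF stimulation (50 ng/ml) runs 5 min, after which cells are solubilized. Third, tyrosine-phosphorylated c-kit in the lysate is quantified by sandwich ELISA with absorbance at 450 nm.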

[1] = figure within parentheses in −( ) or >1000( )

T1 sequence (P16234 24-1089): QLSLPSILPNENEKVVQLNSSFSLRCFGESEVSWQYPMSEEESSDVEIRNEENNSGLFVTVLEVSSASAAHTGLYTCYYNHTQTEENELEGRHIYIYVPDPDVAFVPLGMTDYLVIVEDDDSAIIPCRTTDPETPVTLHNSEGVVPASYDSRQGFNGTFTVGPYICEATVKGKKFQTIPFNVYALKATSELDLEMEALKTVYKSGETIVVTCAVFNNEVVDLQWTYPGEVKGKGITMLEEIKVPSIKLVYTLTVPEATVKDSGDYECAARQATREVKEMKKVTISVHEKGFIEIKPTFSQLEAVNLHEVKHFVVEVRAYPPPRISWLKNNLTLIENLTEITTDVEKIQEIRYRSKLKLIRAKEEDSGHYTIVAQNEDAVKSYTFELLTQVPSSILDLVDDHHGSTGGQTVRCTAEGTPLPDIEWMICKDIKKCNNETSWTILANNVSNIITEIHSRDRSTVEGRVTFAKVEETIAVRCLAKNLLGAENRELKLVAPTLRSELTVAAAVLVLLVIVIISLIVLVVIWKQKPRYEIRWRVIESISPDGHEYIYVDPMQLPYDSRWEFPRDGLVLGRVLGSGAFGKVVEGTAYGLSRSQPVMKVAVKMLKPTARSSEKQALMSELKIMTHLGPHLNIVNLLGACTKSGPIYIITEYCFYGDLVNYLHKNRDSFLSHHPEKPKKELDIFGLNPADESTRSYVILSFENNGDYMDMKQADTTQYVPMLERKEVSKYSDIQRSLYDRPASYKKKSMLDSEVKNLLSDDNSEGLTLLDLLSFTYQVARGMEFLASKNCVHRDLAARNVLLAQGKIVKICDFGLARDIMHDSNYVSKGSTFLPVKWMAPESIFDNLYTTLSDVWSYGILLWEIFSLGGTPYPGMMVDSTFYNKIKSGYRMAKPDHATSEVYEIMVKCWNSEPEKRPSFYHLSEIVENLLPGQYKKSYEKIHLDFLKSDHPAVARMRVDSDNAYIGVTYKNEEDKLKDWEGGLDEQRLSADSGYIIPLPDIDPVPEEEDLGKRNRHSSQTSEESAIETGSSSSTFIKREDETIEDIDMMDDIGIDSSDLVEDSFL
T2 sequence (P10721 26-976): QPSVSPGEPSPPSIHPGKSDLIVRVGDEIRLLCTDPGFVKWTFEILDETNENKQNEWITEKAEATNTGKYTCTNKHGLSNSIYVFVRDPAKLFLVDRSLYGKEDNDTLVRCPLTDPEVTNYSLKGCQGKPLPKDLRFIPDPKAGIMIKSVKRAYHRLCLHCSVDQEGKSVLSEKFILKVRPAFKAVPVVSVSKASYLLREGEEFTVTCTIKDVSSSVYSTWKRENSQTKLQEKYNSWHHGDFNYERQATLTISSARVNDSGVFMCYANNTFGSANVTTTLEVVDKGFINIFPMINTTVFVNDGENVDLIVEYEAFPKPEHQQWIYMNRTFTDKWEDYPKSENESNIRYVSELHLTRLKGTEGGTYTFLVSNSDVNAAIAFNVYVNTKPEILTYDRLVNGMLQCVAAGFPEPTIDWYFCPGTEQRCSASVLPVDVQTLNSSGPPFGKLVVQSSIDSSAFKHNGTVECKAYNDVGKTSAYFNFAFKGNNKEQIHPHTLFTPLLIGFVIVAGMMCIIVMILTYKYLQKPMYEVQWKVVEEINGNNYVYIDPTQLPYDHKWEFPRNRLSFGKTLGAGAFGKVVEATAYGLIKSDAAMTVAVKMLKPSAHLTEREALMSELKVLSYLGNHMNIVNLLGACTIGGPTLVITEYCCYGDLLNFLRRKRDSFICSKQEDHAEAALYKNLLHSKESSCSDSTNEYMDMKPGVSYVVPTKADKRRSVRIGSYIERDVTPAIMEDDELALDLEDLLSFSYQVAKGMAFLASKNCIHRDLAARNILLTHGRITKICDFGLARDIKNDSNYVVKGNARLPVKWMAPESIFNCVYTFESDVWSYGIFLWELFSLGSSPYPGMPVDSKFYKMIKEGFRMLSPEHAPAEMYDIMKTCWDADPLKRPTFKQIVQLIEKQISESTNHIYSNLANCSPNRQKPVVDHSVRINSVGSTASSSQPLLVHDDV

| SMILES | IC50 (PDGF-Ra) [nM] | IC50 (c-kit; 50 ng/ml h-SCF) [nM] | other results |
| --- | --- | --- | --- |
| COc1cc2nccc(Oc3ccc(NC(=S)NC(=O)C(OC)c4ccccc4)cc3)c2cc1OC (centres unmarked) [Example 761, N-{4-[(6,7-Dimethoxy-4-quinolyl)oxy]phenyl}-N′-(2-methoxy-2-phenylacetyl)thiourea] | > 100 |  | inhibition at 0.1 µM (PDGF-Ra): 37%; inhibition at 1 µM (c-kit; [1]): 44% |
| COc1cc2nccc(Oc3ccc(NC(=S)NC(=O)C(C)Oc4ccccc4Cl)cc3)c2cc1OC (centres unmarked) [Example 763, N-[2-(2-Chlorophenoxy)propanoyl]-N′-{4-[(6,7-dimethoxy-4-quinolyl)oxy]phenyl}thiourea] | 13 |  | inhibition at 1 µM (c-kit; [1]): 39% |
| COc1cc2nccc(Oc3ccc(NC(=S)NC(=O)C4CCCO4)cc3)c2cc1OC (centres unmarked) [Example 765, N-{4-[(6,7-Dimethoxy-4-quinolyl)oxy]phenyl}-N′-tetrahydro-2-furanylcarbonylthiourea] | 21 | 937 |  |
| COc1cc2ncnc(Oc3ccc(OC(=O)c4ccccc4)cc3)c2cc1OC [Example 772, 4-[(6,7-Dimethoxy-4-quinazolinyl)oxy]phenyl benzoate] | > 100 | 550 | inhibition at 0.1 µM (PDGF-Ra): 13% |
| COc1cc2nccc(Oc3ccc(OCCCOc4ccc(C)cc4)cc3)c2cc1OC [Example 790, 6,7-Dimethoxy-4-{4-[3-(4-methylphenoxy)propoxy]phenoxy}quinoline] | < 3 | 107 |  |
| COc1cccc(OCCCOc2ccc(Oc3ccnc4cc(OC)c(OC)cc34)cc2)c1 [Example 793, 6,7-Dimethoxy-4-{4-[3-(3-methoxyphenoxy)propoxy]phenoxy}quinoline] | 6 | 335 |  |
| COc1ccc(OCCCOc2ccc(Oc3ccnc4cc(OC)c(OC)cc34)cc2)cc1 [Example 794, 6,7-Dimethoxy-4-{4-[3-(4-methoxy-phenoxy)propoxy]phenoxy}quinoline] | 14 | 192 |  |
| COc1cc2nccc(Oc3ccc(OCCCOc4ccccc4OC)cc3)c2cc1OC [Example 795, 6,7-Dimethoxy-4-{4-[3-(2-methoxy-phenoxy)propoxy]phenoxy}quinoline] | 5 | 336 |  |
| COc1cc2nccc(Oc3ccc(OCCCOc4ccccc4F)cc3)c2cc1OC [Example 796, 4-{4-[3-(2-Fluorophenoxy)propoxy]phenoxy}-6,7-dimethoxyquinoline] | 15 | 394 |  |
| COc1cc2nccc(Oc3ccc(OCCCOc4ccc(F)cc4)cc3)c2cc1OC [Example 798, 4-{4-[3-(4-Fluorophenoxy)propoxy]phenoxy}-6,7-dimethoxyquinoline] | < 10 | 439 |  |
| COc1cccc(NC(=O)COc2ccc(Oc3ncnc4cc(OC)c(OC)cc34)cc2)c1 [Example 800, N1-(3-Methoxyphenyl)-2-{4-[(6,7-dimethoxy-4-quinazolinyl)oxy]phenoxy}acetamide] | < 10 | 30 |  |
| COc1cccc(CNC(=O)COc2ccc(Oc3ncnc4cc(OC)c(OC)cc34)cc2)c1 [Example 801, N1-(3-Methoxybenzyl)-2-{4-[(6,7-dimethoxy-4-quinazolinyl)oxy]phenoxy}acetamide] | 13 | 70 |  |
| COc1cc2ncnc(Oc3ccc(OCC(=O)N4CCc5ccccc5C4)cc3)c2cc1OC [Example 802, 2-{4-[(6,7-Dimethoxy-4-quinazolinyl)oxy]phenoxy}-1-(1,2,3,4-tetrahydro-2-isoquinolyl)-1-ethanone] | < 10 |  | inhibition at 1 µM (c-kit; [1]): 42% |
| COc1cc2ncnc(Oc3ccc(OCC(=O)N4CCC(c5ccccc5)CC4)cc3)c2cc1OC [Example 803, 2-{4-[(6,7-Dimethoxy-4-quinazolinyl)oxy]phenoxy}-1-(4-phenylpiperidino)-1-ethanone] | 13 |  | inhibition at 1 µM (c-kit; [1]): 20% |
| COc1cc2ncnc(Oc3ccc(OCC(=O)N4CCC(Cc5ccccc5)CC4)cc3)c2cc1OC [Example 804, 1-(4-Benzylpiperidino)-2-{4-[(6,7-dimethoxy-4-quinazolinyl)oxy]phenoxy}-1-ethanone] | 37 |  | inhibition at 1 µM (c-kit; [1]): 20% |
| COc1cc2ncnc(Oc3ccc(OCC(=O)N4CCC(N5CCCCC5)CC4)cc3)c2cc1OC [Example 805, 2-{4-[(6,7-Dimethoxy-4-quinazolinyl)oxy]phenoxy}-1-(4-piperidinopiperidino)-1-ethanone] | > 100 |  | inhibition at 0.1 µM (PDGF-Ra): 14%; inhibition at 1 µM (c-kit; [1]): 35% |
| CCN(CC)CCOc1ccc(Oc2ncnc3cc(OC)c(OC)cc23)cc1 [Example 807, N-(2-{4-[(6,7-Dimethoxy-4-quinazolinyl)oxy]phenoxy}ethyl)-N,N-diethylamine] | > 100 |  | inhibition at 0.1 µM (PDGF-Ra): 20%; inhibition at 1 µM (c-kit; [1]): 20% |
| COc1cc2ncnc(Oc3ccc(OCCCOc4ccc(F)cc4)cc3)c2cc1OC [Example 808, 4-{4-[3-(4-Fluorophenoxy)propoxy]phenoxy}-6,7-dimethoxyquinazoline] | < 10 | 61 |  |
| COc1cccc(OCCCOc2ccc(Oc3ncnc4cc(OC)c(OC)cc34)cc2)c1 [Example 809, 6,7-Dimethoxy-4-{4-[3-(3-methoxyphenoxy)propoxy]phenoxy}quinazoline] | < 10 |  | IC50 (c-kit; h-SCF stimulation): 73 nM |
| COc1cc2ncnc(Oc3ccc(OCCCOc4ccccc4OC)cc3)c2cc1OC [Example 810, 6,7-Dimethoxy-4-{4-[3-(2-methoxyphenoxy)propoxy]phenoxy}quinazoline] | 18 |  | IC50 (c-kit; h-SCF stimulation): 269 nM |
| COc1cc2ncnc(Oc3ccc(OCCCn4ccc5ccccc54)cc3)c2cc1OC [Example 811, 4-{4-[3-(1H-1-Indolyl)propoxy]phenoxy}-6,7-dimethoxyquinazoline] | 17 |  | inhibition at 1 µM (c-kit; figure in parentheses in −( )): 20% |

More lines, main results first:

| IC50 (PDGF-Ra) [nM] | IC50 (c-kit; 50 ng/ml h-SCF) [nM] | SMILES | other results |
| --- | --- | --- | --- |
| 14 |  | COc1cc2nccc(Oc3ccc(NC(=S)NC(=O)C(C)Oc4ccccc4Cl)cc3Cl)c2cc1OC (centres unmarked) [Example 764, N-{3-Chloro-4-[(6,7-dimethoxy-4-quinolyl)oxy]phenyl}-N′-[2-(2-chlorophenoxy)propanoyl]thiourea] | inhibition at 1 µM (c-kit; [1]): 19% |
| 11 | 11 | COc1ccccc1NCCOc1ccc(Oc2ccnc3cc(OC)c(OC)cc23)cc1 [Example 777, N-(2-{4-[(6,7-Dimethoxy-4-quinolyl)oxy]phenoxy}ethyl)-N-(2-methoxyphenyl)amine] |  |
| < 10 | 107 | COc1cccc(NCCOc2ccc(Oc3ccnc4cc(OC)c(OC)cc34)cc2)c1 [Example 779, N-(2-{4-[(6,7-Dimethoxy-4-quinolyl)oxy]phenoxy}ethyl)-N-(3-methoxyphenyl)amine] |  |
| 3 | 208 | COc1cc2nccc(Oc3ccc(OCCCOc4cccc(C)c4)cc3)c2cc1OC [Example 791, 6,7-Dimethoxy-4-{4-[3-(3-methylphenoxy)propoxy]phenoxy}quinoline] |  |
| 6 | 301 | COc1cc2nccc(Oc3ccc(OCCCOc4ccccc4C)cc3)c2cc1OC [Example 792, 6,7-Dimethoxy-4-{4-[3-(2-methylphenoxy)propoxy]phenoxy}quinoline] |  |
| 27 | 403 | COc1cc2nccc(Oc3ccc(OCCCOc4cccc(F)c4)cc3)c2cc1OC [Example 797, 4-{4-[3-(3-Fluorophenoxy)propoxy]phenoxy}-6,7-dimethoxyquinoline] |  |
| 19 |  | COc1cc2nccc(Oc3ccc(NCCOc4cccc(C)c4)cc3C)c2cc1OC [Example 878, N-{4-[(6,7-Dimethoxy-4-quinolyl)oxy]-3-methylphenyl}-N-[2-(3-methylphenoxy)ethyl]amine] | IC50 (c-kit; h-SCF stimulation): 65 nM |
| 20 |  | COc1cc2nccc(Oc3ccc(NCCOc4ccc(C)cc4)cc3C)c2cc1OC [Example 879, N-{4-[(6,7-Dimethoxy-4-quinolyl)oxy]-3-methylphenyl}-N-[2-(4-methylphenoxy)ethyl]amine] | IC50 (c-kit; h-SCF stimulation): 48 nM |
| 16 |  | COc1cc2nccc(Oc3ccc(NCCOc4ccccc4OC)cc3C)c2cc1OC [Example 880, N-{4-[(6,7-Dimethoxy-4-quinolyl)oxy]-3-methylphenyl}-N-[2-(2-methoxyphenoxy)ethyl]amine] | IC50 (c-kit; h-SCF stimulation): 149 nM |
| > 30 |  | COc1cc2nccc(Oc3ccc(NCCOc4c(C)cccc4C)cc3C)c2cc1OC [Example 881, N-{4-[(6,7-Dimethoxy-4-quinolyl)oxy]-3-methylphenyl}-N-[2-(2,6dimethylphenoxy)ethyl]amine] | PDGF (E) inhibition (%), figure in parentheses in >30( ) (PDGF-Ra): 29%; IC50 (c-kit; h-SCF stimulation): 346 nM |
| 23 |  | COc1cc2nccc(Oc3ccc(NCCOc4c(OC)cccc4OC)cc3C)c2cc1OC [Example 882, N-[2-(2 6-Dimethoxyphenoxy)ethyl]-N-{4-[(6,7-dimethoxy-4-quinolyl)oxy]-3-methylphenyl}amine] | inhibition at 1 µM (c-kit; figure in parentheses in −( )): 36% |
| > 30 |  | COc1cc2nccc(Oc3ccc(NCCOc4c(F)cccc4F)cc3C)c2cc1OC [Example 883, N-[2-(2,6-Difluorophenoxy)ethyl]-N-{4-[(6,7-dimethoxy-4-quinolyl)oxy]-3-methylphenyl}amine] | PDGF (E) inhibition (%), figure in parentheses in >30( ) (PDGF-Ra): >30(30) %; IC50 (c-kit; h-SCF stimulation): 521 nM |
| 44 |  | COc1cc2nccc(Oc3ccc(NCCOc4c(OC)cccc4OC)c(C)c3C)c2cc1OC [Example 884, N-[2-(2,6-Dimethoxyphenoxy)ethyl]-N-{4-[(6,7-dimethoxy-4-quinolyl)oxy]-2,3-dimethylphenyl}amine] | inhibition at 1 µM (c-kit; figure in parentheses in −( )): 30% |
